Laboratory results reported in patent publication US20210361701A1, “PENTAAZA MACROCYCLIC RING COMPLEXES FOR LOCAL DELIVERY” (Galera Labs, LLC, priority 2017, published 2021).
Where two headings read alike, the source gives them in different places.

Key:
[1] = chronic repeated IV dosing, rat; cited from earlier work
[2] = 30-minute iv infusion in humans; cited from earlier work
[3] = Maximum tolerated dose by 30-minute iv infusion in humans; conditions: in a 70-kg subject
[4] = Rat indomethacin model of intestinal inflammation (Crohn's Disease); assay type: in vivo, Female Lewis rats
Experimental: A study was conducted to determine the potential efficacy of GC4403 delivered locally to the intestine in a model of intestinal inflammation (Crohn's Disease) induced by the administration of indomethacin. Female Lewis rats received cannulae surgically implanted in the duodenum with the opposite end exteriorized, and were allowed to recover. The cannulae enabled the direct injection of GC4403 or vehicle into the duodenum (intraduodenal or ID dosing) in these animals; however, uncannulated female Lewis rats were used for dosing groups not receiving ID dosing. Rats were administered indomethacin on experimental days 0 and 1 (9 mg/kg/d; subcutaneously) to induce lesions similar to those occurring in Crohn's disease in the small intestine (SI). The therapeutic interventions outlined in Table II were administered in 9 dosing groups of 10 (IV) or 12 (ID) animals each on days 0 through 3:
The rats were sacrificed and necropsied on day 4, and 10 cm sections from the middle portion of the SI (jejunum) were weighed and examined by histopathology for inflammation. The weight of a 10 cm section serves as a surrogate marker for comparing inflammation and edema across the dosing groups.

[5] = Plasma pharmacokinetics after intraduodenal or intravenous dosing in female rats; assay type: in vivo
Experimental: Therefore, following equivalent doses of GC4403, the systemic exposure to an ID dose in this Example was at least 30-100 times lower than it would be from an IV dose. […] This is important since the No Observable Adverse Effect Level (NOAEL) for chronic repeated IV dosing of GC4403 in the rat was previously shown to be only 3 mg/kg/day, and at this time, GC4403 has only be administered successfully to humans by the IV route. Thus, GC4403 or another related dismutase mimetic, such as GC4419, administered as an appropriate oral dosage form delivering drug directly into the small intestine may be an effective treatment for Crohn's Disease, ulcerative colitis and related diseases in humans.

[6] = 10 mg/kg IP injection on days 0-3
[7] = 30 mg/kg ID, direct topical delivery into the intestine

**Q.** For `[Cl-].[Cl-].[Mn+2].c1cc2nc(c1)CN[C@@H]1CCCC[C@H]1NCCN[C@@H]1CCCC[C@H]1NC2` [GC4403], which “No Observable Adverse Effect Level (NOAEL)” value [1] is on record?
**A.** 3 mg/kg/day

**Q.** What about the maximum tolerated dose [2] of the same molecule?
**A.** 25 mg

**Q.** And the maximum tolerated dose [3]?
**A.** roughly 0.35 mg/kg

**Q.** And the jejunal score [4, 6]?
**A.** reduced

**Q.** And the jejunal weight [4, 6]?
**A.** reduced

**Q.** And the “reduction in jejunal score” value [4, 7]?
**A.** 21%

**Q.** What about the “reduction in jejunal weight” value [4, 7] of the same molecule?
**A.** 32%

**Q.** And the mean plasma maximum ([5]; 3 mg/kg IV dose, separate study, measured 10 min after injection)?
**A.** at least 3,280 ng/mL

**Q.** What about the “mean plasma maximum (Cmax)” value ([5]; 30 mg/kg ID dose) of the same molecule?
**A.** 303 ng/mL

**Q.** What about the calculated bioavailability ([5]; 30 mg/kg ID dose, AUC of ID vs estimated AUC with IV) of the same molecule?
**A.** 3.1%

**Q.** What about the “expected Cmax extrapolated” value ([5]; 30 mg/kg IV dose) of the same molecule?
**A.** approximately 32,800 ng/mL

**Q.** What about the “Cmax of ID dose relative to expected Cmax of same dose IV” value ([5]; 30 mpk ID vs 30 mg/kg IV (extrapolated)) of the same molecule?
**A.** less than 1%

**Q.** What about the “systemic exposure to an ID dose, lower than from an IV dose” value ([5]; equivalent doses) of the same molecule?
**A.** 30-100 times
